Measurements reported in patent US9555038B2, “Heterocycle-substituted tetracyclic compounds and methods of use thereof for the treatment of viral diseases” (Merck Sharp & Dohme Corp., priority 2013, dated 2017).
Where two headings read alike, the source gives them in different places.

Key:
HCV replicon 1B = test: Cell-based HCV Replicon Assay B, replicon 1B
Outline: (§1)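 Replicon cells seeded in 5% FBS; compounds added 24 h later, then 3 days' incubation. Replicon RNA quantified by real-time RT-PCR with genotype-specific primers/probes (NS5B amplicon for 1b). EC50 = concentration raising CT by 1 over projected baseline.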

HCV replicon 1A = test: Cell-based HCV Replicon Assay A, replicon 1A
Outline: (§2)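 HCV replicon RNA levels are measured by multiplexed real-time RT-PCR, with cyclophilin as internal control, after 3 days of compound exposure. Compounds are tested in 10 serial dilutions starting between 333.3 nM and 1.667 nM, with 5% FBS in the medium.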

HCV replicon 2B = test: Cell-based HCV Replicon Assay A, replicon 2B
Outline: as §2

HCV replicon 1AQ30D = test: Cell-based HCV Replicon Assay B, replicon 1AQ30D
Outline: as §1

HCV replicon 1AY93H = test: Cell-based HCV Replicon Assay A, replicon 1AY93H
Outline: as §2

[1] = Hepatitis C virus, read-out: 2B IC50 (nM), replicon 2B
[2] = Hepatitis C virus, read-out: 1A Q30D IC50 (nM), replicon 1AQ30D
[3] = Hepatitis C virus, read-out: 1A Y93H IC50 (nM), replicon 1AY93H
[4] = read-out: 1A Q30D IC50, replicon 1AQ30D
[5] = read-out: 1A Y93H IC50, replicon 1AY93H
[6] = replicon 1AQ30D, read-out: 1A Q30D IC50
[7] = replicon 1AY93H, read-out: 1A Y93H IC50

Row | Structure (SMILES) | IC50 (HCV replicon 1B; Hepatitis C virus) [pM] | IC50 (HCV replicon 1A; Hepatitis C virus) [pM] | IC50 (HCV replicon 2B; [1]) [nM] | IC50 (HCV replicon 1AQ30D; [2]) [nM] | IC50 (HCV replicon 1AY93H; [3]) [nM] | IC50 (HCV replicon 1A) [pM] | IC50 (HCV replicon 2B; read-out: 2B IC50, replicon 2B) [nM] | IC50 (HCV replicon 1AQ30D; [4]) [nM] | IC50 (HCV replicon 1AY93H; [5]) [nM] | IC50 (HCV replicon 1B) [pM] | IC50 (HCV replicon 2B; replicon 2B, read-out: 2B IC50) [nM] | IC50 (HCV replicon 1AQ30D; [6]) [nM] | IC50 (HCV replicon 1AY93H; [7]) [nM]
1 | COC(=O)NC(C(=O)N1[C@@H]2C[C@@H]2C[C@H]1c1ncc(-c2ccc3c(c2)cc2n3C(c3cnc(C4CCC4)s3)Oc3cc(-c4cnc([C@@H]5CCCN5C(=O)[C@@H](NC(=O)OC)C(C)C)[nH]4)cc(C)c3-2)[nH]1)C1C[C@@H](C)O[C@@H](C)C1 (single isomer, unassigned) [Compound 222] | 6 | 2.7 | 0.007 | 0.044 | 0.0059 |  |  |  |  |  |  |  | 
2 | COC(=O)NC(C(=O)N1[C@@H]2C[C@@H]2C[C@H]1c1ncc(-c2ccc3c(c2)cc2n3C(c3cnc(C4CCC4)s3)Oc3cc(-c4cnc([C@@H]5CCCN5C(=O)[C@@H](NC(=O)OC)C(C)C)[nH]4)cc(C)c3-2)[nH]1)C1CCOC(C)(C)C1 (single isomer, unassigned) [Compound 223] | 8 | 6 | 0.115 | 2.98 | 0.3 |  |  |  |  |  |  |  | 
3 | COC(=O)N[C@H](C(=O)N1CCC[C@H]1c1ncc(-c2cc(F)c3c(c2)OC(c2cnc(C4CC4)s2)n2c-3cc3cc(-c4cnc([C@@H]5C[C@H]6C[C@H]6N5C(=O)[C@@H](NC(=O)OC)C(C)C)[nH]4)ccc32)[nH]1)C(C)C (single isomer, unassigned) [Compound 300] | 3 |  |  |  |  | 3 | 0.011 | 0.066 | 0.0041 |  |  |  | 
4 | COC(=O)N[C@H](C(=O)N1CCC[C@H]1c1ncc(-c2cc(F)c3c(c2)OC(c2cnc(C4CC4)s2)n2c-3cc3cc(-c4cnc([C@@H]5C[C@H]6C[C@H]6N5C(=O)[C@@H](NC(=O)OC)C(C)C)[nH]4)ccc32)[nH]1)C(C)C (single isomer, unassigned) [Compound 301] |  |  |  |  |  | 1.4 | 0.335 | 2.12 | 0.22 | 4 |  |  | 
5 | COC(=O)N[C@H](C(=O)N1CCC[C@H]1c1ncc(-c2cc(F)c3c(c2)OC(c2cnc(C(C)(C)C)s2)n2c-3cc3cc(-c4cnc([C@@H]5CCCN5C(=O)[C@@H](NC(=O)OC)C(C)C)[nH]4)ccc32)[nH]1)C(C)C (single isomer, unassigned) [Compound 302] |  | 2.9 |  | 0.168 |  |  | 0.077 |  | 0.0071 | 1 |  |  | 
6 | COC(=O)NC(C(=O)N1CCC[C@H]1c1ncc(-c2ccc3c(c2)cc2n3C(c3cnc(C4CC4)s3)Oc3cc(-c4cnc([C@@H]5CCCN5C(=O)[C@@H](NC(=O)OC)C(C)C)[nH]4)cc(F)c3-2)[nH]1)C1C[C@@H](C)O[C@H](C)C1 (single isomer, unassigned) [Compound 304] | 3 | 2 |  |  |  |  | 0.048 | 0.954 | 0.123 |  |  |  | 
7 | COC(=O)NC(C(=O)N1CCC[C@H]1c1ncc(-c2ccc3c(c2)cc2n3C(c3cnc(C4CC4)s3)Oc3cc(-c4cnc([C@@H]5CCCN5C(=O)[C@@H](NC(=O)OC)C(C)C)[nH]4)cc(F)c3-2)[nH]1)C1C[C@@H](C)O[C@@H](C)C1 (single isomer, unassigned) [Compound 307] | 5 |  |  | 0.047 |  | 4.2 | 0.006 |  | 0.0083 |  |  |  | 
8 | COC(=O)NC(C(=O)N1CCC[C@H]1c1ncc(-c2ccc3c(c2)cc2n3C(c3cnc(C4CC4)s3)Oc3cc(-c4cnc([C@@H]5CCCN5C(=O)[C@@H](NC(=O)OC)C(C)C)[nH]4)cc(F)c3-2)[nH]1)C1CCOC(C)(C)C1 (single isomer, unassigned) [Compound 308] | 3 |  |  |  |  | 4.1 | 0.047 | 0.496 | 0.0757 |  |  |  | 
9 | COC(=O)NC(C(=O)N1CCC[C@H]1c1ncc(-c2ccc3c(c2)cc2n3C(c3cnc(C4CC4)s3)Oc3cc(-c4cnc([C@@H]5CCCN5C(=O)[C@@H](NC(=O)OC)C(C)C)[nH]4)cc(F)c3-2)[nH]1)C1CCOC(C)(C)C1 (single isomer, unassigned) [Compound 309] |  |  |  |  |  | 1.8 | 0.003 | 0.047 | 0.0218 | 6 |  |  | 
10 | COC(=O)NC(C(=O)N1[C@@H]2C[C@@H]2C[C@H]1c1ncc(-c2ccc3c(c2)cc2n3C(c3cnc(C4CC4)s3)Oc3cc(-c4cnc([C@@H]5CCCN5C(=O)[C@@H](NC(=O)OC)C(C)C)[nH]4)cc(F)c3-2)[nH]1)C1C[C@@H](C)O[C@@H](C)C1 (single isomer, unassigned) [Compound 310] | 3 | 2.6 |  |  |  |  | 0.12 | 0.806 | 0.0954 |  |  |  | 
11 | COC(=O)NC(C(=O)N1[C@@H]2C[C@@H]2C[C@H]1c1ncc(-c2ccc3c(c2)cc2n3C(c3cnc(C4CC4)s3)Oc3cc(-c4cnc([C@@H]5CCCN5C(=O)[C@@H](NC(=O)OC)C(C)C)[nH]4)cc(F)c3-2)[nH]1)C1C[C@@H](C)O[C@@H](C)C1 (single isomer, unassigned) [Compound 311] |  |  |  |  |  | 2 | 0.003 | 0.011 | 0.0019 | 2 |  |  | 
12 | COC(=O)NC(C(=O)N1CCCC1c1ncc(-c2cc(F)c3c(c2)OC(c2cnc(C4CCCC4)s2)n2c-3cc3cc(-c4cnc(C5CC6CC6N5C(=O)C(NC(=O)OC)C(C)C)[nH]4)ccc32)[nH]1)C(C)C (single isomer, unassigned) [Compound 319] |  |  |  |  |  | 2.5 |  |  |  | 3 | 0.017 | 0.051 | 0.0029
13 | COC(=O)NC(C(=O)N1CCCC1c1ncc(-c2cc(F)c3c(c2)OC(c2cnc(C4CCCC4)s2)n2c-3cc3cc(-c4cnc(C5CC6CC6N5C(=O)C(NC(=O)OC)C(C)C)[nH]4)ccc32)[nH]1)C(C)C (single isomer, unassigned) [Compound 320] |  |  |  |  |  | 1.7 |  |  |  | 3 | 0.203 | 0.59 | 0.036
14 | COC(=O)NC(C(=O)N1[C@@H]2C[C@@H]2C[C@H]1c1ncc(-c2ccc3c(c2)cc2n3C(c3cnc(C4CCCC4)s3)Oc3cc(-c4cnc([C@@H]5CCCN5C(=O)[C@@H](NC(=O)OC)C(C)C)[nH]4)cc(F)c3-2)[nH]1)C1CCOC(C)(C)C1 (single isomer, unassigned) [Compound 321] | 3 | 2.9 |  |  |  |  | 0.004 | 0.007 | 0.0019 |  |  |  | 
15 | COC(=O)NC(C(=O)N1[C@@H]2C[C@@H]2C[C@H]1c1ncc(-c2ccc3c(c2)cc2n3C(c3cnc(C4CCCC4)s3)Oc3cc(-c4cnc([C@@H]5CCCN5C(=O)[C@@H](NC(=O)OC)C(C)C)[nH]4)cc(F)c3-2)[nH]1)C1CCOC(C)(C)C1 (single isomer, unassigned) [Compound 322] |  |  |  |  |  | 2.7 | 0.058 | 0.324 | 0.0512 | 4 |  |  | 
16 | COC(=O)N[C@H](C(=O)N1CCC[C@H]1c1ncc(-c2cc(F)c3c(c2)OC(c2cnc(-c4ccncc4)s2)n2c-3cc3cc(-c4cnc([C@@H]5CCCN5C(=O)[C@@H](NC(=O)OC)C(C)C)[nH]4)ccc32)[nH]1)C(C)C (single isomer, unassigned) [Compound 409] | 7 | 10.8 | 1.28 | 5.1 | 0.577 |  |  |  |  |  |  |  | 
17 | COC(=O)NC(C(=O)N1[C@@H]2C[C@@H]2C[C@H]1c1ncc(-c2ccc3c(c2)cc2n3C(c3cnc(CC(C)C)s3)Oc3cc(-c4cnc([C@@H]5CCCN5C(=O)[C@@H](NC(=O)OC)C(C)C)[nH]4)cc(F)c3-2)[nH]1)C1CCOC(C)(C)C1 (single isomer, unassigned) [Compound 437] |  |  |  |  |  | 2.2 |  |  |  | 3.1 | 0.21 | 0.283 | 0.176
18 | COC(=O)NC(C(=O)N1[C@@H]2C[C@@H]2C[C@H]1c1ncc(-c2ccc3c(c2)cc2n3C(c3cnc(CC(C)C)s3)Oc3cc(-c4cnc([C@@H]5CCCN5C(=O)[C@@H](NC(=O)OC)C(C)C)[nH]4)cc(F)c3-2)[nH]1)C1CCOC(C)(C)C1 (single isomer, unassigned) [Compound 438] |  |  |  |  |  | 3.6 |  |  |  | 3.7 | 0.006 | 0.03 | 0.004
19 | COC(=O)NC(C(=O)N1[C@@H]2C[C@@H]2C[C@H]1c1ncc(-c2ccc3c(c2)cc2n3C(c3cnc(CC(C)C)s3)Oc3cc(-c4cnc([C@@H]5CCCN5C(=O)[C@@H](NC(=O)OC)C(C)C)[nH]4)cc(F)c3-2)[nH]1)C1CCOC(C)(C)C1 (single isomer, unassigned) [Compound 439] |  |  |  |  |  | 2.7 |  |  |  | 2.1 | 0.006 | 0.018 | 0.004
20 | COC(=O)NC(C(=O)N1[C@@H]2C[C@@H]2C[C@H]1c1ncc(-c2ccc3c(c2)cc2n3C(c3cnc(CC(C)C)s3)Oc3cc(-c4cnc([C@@H]5CCCN5C(=O)[C@@H](NC(=O)OC)C(C)C)[nH]4)cc(F)c3-2)[nH]1)C1C[C@@H](C)O[C@@H](C)C1 (single isomer, unassigned) [Compound 440] | 3.6 | 2.3 |  |  |  |  | 0.32 | 0.967 | 0.146 |  |  |  | 
21 | COC(=O)NC(C(=O)N1[C@@H]2C[C@@H]2C[C@H]1c1ncc(-c2ccc3c(c2)cc2n3C(c3cnc(CC(C)C)s3)Oc3cc(-c4cnc([C@@H]5CCCN5C(=O)[C@@H](NC(=O)OC)C(C)C)[nH]4)cc(F)c3-2)[nH]1)C1C[C@@H](C)O[C@@H](C)C1 (single isomer, unassigned) [Compound 441] |  |  |  |  |  | 2.5 | 0.006 | 0.011 | 0.003 | 3.4 |  |  | 
